Reference: patent US20120214824A1, “PROTEOSTASIS REGULATORS” (priority 2010, published 2012)

Tests used:
[1] = system: HspA5; test: Multigene assay (QuantiGene Plex 2.0), mouse MEF cell line; assay type: cell-based; settings: 6 hours post-compound treatment
Experimental: (§1) This assay used the QuantiGene Plex 2.0 Reagent System from Affymetrix. This assay combines the use of bDNA (branch DNA) and xMAP magnetic capture beads from Luminex Technologies to quantitatively and simultaneously detect multiple mRNA transcripts per well. The overall procedure was performed according to the QuantiGene Plex 2.0 Reagent System instruction manual from Affymetrix.
(§2) Cells were seeded at a density of 12,000 cells/well in 96-well plates with an overnight incubation at 37° C., 5% CO2. Cells were treated with serially diluted compounds in a 7-point dose dependent manner. Cell lysis with 50% [v/v] Panomics Lysis Mixture (Lysis Mixture+10 μl/ml 25 Proteinase K) was performed 6 hours post-compound treatment. Lysed cells were heated at 50° C. to ensure appropriate lysing and the plates were then frozen at −80° C. Cell lysates, thawed at room temperature on the day of the assay, were pooled with mouse 8-gene multiplex probe sets and with 8 different sets of magnetic capture beads (Luminex Technology, Austin, Tex.) in a 100 μl/well volume. Biomek FX was used at every liquid transfer step. The eight plates containing lysate-probe-bead mixtures were incubated at 54° C.±1° C. on a shaking platform for an overnight incubation in the dark (18-20 hours). The following day the hybridization plates were compressed by transferring the hybridized lysates into a single magnetic capture plate. The plate was kept on a magnet to hold the beads and then washed with Panomics Wash Buffer 2.0 on a BioTek ELx405 select plate washer to remove any unbound sample. This step was followed by serial hybridizations and washings of the bDNA pre-amplifier (1 hour, 50° C.), bDNA amplifier (1 hour, 50° C.), label probe (1 hour, 50° C.), and streptavidin-phycoerythrin (SAPE, 30 minutes, room temperature). (Zhang, A. et al. Small interfering RNA and gene expression analysis using a multiplex branched DNA assay without RNA purification. J Biomol Screen 10, 549-56 (2005)). The plate was then washed with SAPE wash buffer to remove unbound SAPE and each well was analyzed with the Luminex FlexMap3D (Luminex, Austin, Tex.). SAPE fluorescence measured from each bead was proportional to the number of mRNA transcripts captured by the beads (Zheng, Z., Luo, Y. & McMaster, G. K. Sensitive and quantitative measurement of gene expression directly from a small amount of whole blood. Clin Chem 52, 1294-302 (2006)). Fold changes in gene expression were obtained for each gene per well by normalizing the raw data first to the DMSO control and then to a housekeeping gene (TBP-TATA binding protein or Tub1-alpha-tubulin).

[2] = system: GCLM; test: as above; assay type: cell-based; settings: 6 hours post-compound treatment
Experimental: as §1, §2

[3] = system: DDIT3; test: as above; assay type: cell-based; settings: 6 hours post-compound treatment
Experimental: as §1, §2

[4] = system: HMOX; test: as above; assay type: cell-based; settings: 6 hours post-compound treatment
Experimental: as §1, §2

[5] = system: HSPA1a; test: as above; assay type: cell-based; settings: 6 hours post-compound treatment
Experimental: as §1, §2

[6] = system: TUB1; test: as above; assay type: cell-based; settings: 6 hours post-compound treatment
Experimental: as §1, §2

[7] = system: BCL2; test: as above; assay type: cell-based; settings: 6 hours post-compound treatment
Experimental: as §1, §2

[8] = system: firefly luciferase; test: Luciferase folding assay (Lucif.); assay type: cell-based, human; settings: HeLa-luciferase cells; Table 1a
Excerpt: Firefly luciferase is a commonly used bioluminescent reporter. This monomeric enzyme of 61 kDa catalyzes a two-step oxidation reaction to yield light, usually in the green to yellow region, typically 550-570 nm. The first step of this reaction is activation of the luciferyl carboxylate by ATP to yield a reactive mixed anhydride. In the second step, the activated intermediate reacts with oxygen to create a transient dioxetane that breaks down to the oxidized products, oxyluciferin and CO2. Upon mixing with substrates, firefly luciferase produces an initial burst of light that decays over about 15 seconds to a low level of sustained luminescence. This kinetic profile reflects the slow release of the enzymatic product, thus limiting catalytic turnover after the initial reaction.
This mammalian cell based assay that used firefly luciferase as a sensor was used to screen for compounds that may modulate the cellular folding environment.
HeLa luciferase cell lines: Frozen bullets containing the cells were thawed briefly at 37° C. then placed into a T-150 flask containing 30-35 ml DMEM medium+Penicillin/Strep (1% final+10% FBS (final)+Geneticin @ 200-500 ug/ml. Cell cultures were maintained at 37° C. with 5% CO2 and water in the bottom of the incubator to keep cells healthy. Upon expanding cell line, luciferase measurements were taken to make sure that activity levels were between 2000-5000 (RLU) when plated at 15K/well in a 96-well format (Bright-Glo Promega) before compound treatment.
Compound treatment of HeLa-luciferase cells: HeLa-luciferase WT cells were plated in a 96-well format at 15K/well the day prior to performing compound treatment and/or luciferase assay. […] Final volume used per well was 90 uL. Flat bottom, white polystyrene plates were used for plating the cells.
For compound treatment, stocks of compounds were made up at 10 mM concentration in DMSO. Stocks compounds were diluted by 100× fold in the same media used for culturing the cells—this leads to a 0.1 mM (or 100 uM) concentration. After diluting the compound in media, 10 uL of the 100 uM solution was placed into each well of cells (90 uL); making the final concentration of the compound 10 uM. If serial dilutions of compounds were tested, serial dilutions of compounds were first made in DMSO accordingly, and further diluted in the media, prior to adding to cells. This procedure allowed for constant final levels of DMSO concentrations, regardless of initial compound concentration.
Performing luciferase activity assay: Bright-Glo Luciferase Assay Reagent (Promega cat #: E2610, E2620, E2650) was thawed out at RT in a water bath. Alternatively, Bright-Glo Luciferase assay buffer (prior to mixing with substrate) was stored overnight at RT, prior to using.
Following compound treatment, plates were removed from 37° C. and allowed to acclimate to RT for 5-10 min. Bright-Glo reagent was added to each cell-containing well in a 1:1 ratio (e.g., 100 uL of Bright Glo for each 100 uL cells).
Plates were placed on a plate shaker for 5 min, removing any air bubbles on the surface (which may interfere with proper reads), and then read on an EnVision 2104 Multilabel reader, Emission filter Luminescence 700, barcode 212, WL 400-700 nm.
Data for representative compounds in this assay are shown under the heading “Lucif.”

CC1=C(C#N)C(c2ccc(F)cc2)C2=C(CC(c3cccs3)CC2=O)N1 (stereo not drawn) [drawing 26/Me/CN/p-F]
HspA5 gene induction ([1]; Table 1b): − (− Indicates less than 2 fold induction)
GCLM gene induction ([2]; Table 1a): − (− Indicates less than 2 fold induction)
DDIT3 gene induction ([3]; Table 1a): − (− Indicates less than 2 fold induction)
HMOX gene induction ([4]; Table 1b): − (− Indicates less than 2 fold induction)
HSPA1a gene induction ([5]; Table 1b): − (− Indicates less than 2 fold induction)
TUB1 gene induction ([6]; Table 1a): − (− Indicates less than 2 fold induction)
BCL2 gene induction ([7]; Table 1b): − (− Indicates less than 2 fold induction)
Lucif. (luciferase activity induction) [8]: + (+ indicates a induction of greater than 2 fold)

CC1=C(C(=O)OCC(C)C)C(c2ccc(F)cc2)C2=C(CC(c3cccs3)CC2=O)N1 (stereo not drawn) [drawing 26/Me/COOCH2CHMe2/p-F #1]
Lucif. (luciferase activity induction) [8]: + (+ indicates a induction of greater than 2 fold)

CC1=C(C(=O)OCC(C)C)C(c2ccc(F)cc2)C2=C(CC(c3cccs3)CC2=O)N1 (stereo not drawn) [drawing 26/Me/COOCH2CHMe2/p-F #2]
HspA5 gene induction ([1]; Table 1b): − (− Indicates less than 2 fold induction)
GCLM gene induction ([2]; Table 1a): − (− Indicates less than 2 fold induction)
DDIT3 gene induction ([3]; Table 1a): + (+ indicates a induction of greater than 2 fold)
HMOX gene induction ([4]; Table 1b): − (− Indicates less than 2 fold induction)
HSPA1a gene induction ([5]; Table 1b): − (− Indicates less than 2 fold induction)
TUB1 gene induction ([6]; Table 1a): − (− Indicates less than 2 fold induction)
BCL2 gene induction ([7]; Table 1b): − (− Indicates less than 2 fold induction)
Lucif. (luciferase activity induction) [8]: + (+ indicates a induction of greater than 2 fold)

N#CC1=C(N)Oc2[nH]nc(C34CC5CC(CC(C5)C3)C4)c2C1c1cccs1 (stereo not drawn) [drawing 29/1-Adamantyl/H/H/S]
HspA5 gene induction ([1]; Table 4b): − (− Indicates less than 2 fold induction)
GCLM gene induction ([2]; Table 4a): + (+ indicates a induction of greater than 2 fold)
DDIT3 gene induction ([3]; Table 4a): − (− Indicates less than 2 fold induction)
HMOX gene induction ([4]; Table 4b): + (+ indicates a induction of greater than 2 fold)
HSPA1a gene induction ([5]; Table 4b): − (− Indicates less than 2 fold induction)
TUB1 gene induction ([6]; Table 4a): − (− Indicates less than 2 fold induction)
BCL2 gene induction ([7]; Table 4b): − (− Indicates less than 2 fold induction)

N#CC1=C(N)Oc2[nH]nc(-c3ccccn3)c2C1c1cccs1 (stereo not drawn) [drawing 29/2-Pyridyl/H/H/S]
HspA5 gene induction ([1]; Table 4b): − (− Indicates less than 2 fold induction)
GCLM gene induction ([2]; Table 4a): + (+ indicates a induction of greater than 2 fold)
DDIT3 gene induction ([3]; Table 4a): − (− Indicates less than 2 fold induction)
HMOX gene induction ([4]; Table 4b): + (+ indicates a induction of greater than 2 fold)
HSPA1a gene induction ([5]; Table 4b): − (− Indicates less than 2 fold induction)
TUB1 gene induction ([6]; Table 4a): − (− Indicates less than 2 fold induction)
BCL2 gene induction ([7]; Table 4b): − (− Indicates less than 2 fold induction)

CCCc1n[nH]c2c1C(c1ccc(C)o1)C(C#N)=C(N)O2 (stereo not drawn) [drawing 29/(CH2)2Me/Me/H/O]
HspA5 gene induction ([1]; Table 4b): − (− Indicates less than 2 fold induction)
GCLM gene induction ([2]; Table 4a): + (+ indicates a induction of greater than 2 fold)
DDIT3 gene induction ([3]; Table 4a): − (− Indicates less than 2 fold induction)
HMOX gene induction ([4]; Table 4b): + (+ indicates a induction of greater than 2 fold)
HSPA1a gene induction ([5]; Table 4b): − (− Indicates less than 2 fold induction)
TUB1 gene induction ([6]; Table 4a): − (− Indicates less than 2 fold induction)
BCL2 gene induction ([7]; Table 4b): − (− Indicates less than 2 fold induction)

COCc1n[nH]c2c1C(c1cccs1)C(C#N)=C(N)O2 (stereo not drawn) [drawing 29/CH2OMe/H/H/S]
HspA5 gene induction ([1]; Table 4b): − (− Indicates less than 2 fold induction)
GCLM gene induction ([2]; Table 4a): + (+ indicates a induction of greater than 2 fold)
DDIT3 gene induction ([3]; Table 4a): − (− Indicates less than 2 fold induction)
HMOX gene induction ([4]; Table 4b): + (+ indicates a induction of greater than 2 fold)
HSPA1a gene induction ([5]; Table 4b): − (− Indicates less than 2 fold induction)
TUB1 gene induction ([6]; Table 4a): − (− Indicates less than 2 fold induction)
BCL2 gene induction ([7]; Table 4b): − (− Indicates less than 2 fold induction)

CC(C)(C)c1n[nH]c2c1C(c1cccs1)C(C#N)=C(N)O2 (stereo not drawn) [drawing 29/CMe3/H/H/S]
HspA5 gene induction ([1]; Table 4b): − (− Indicates less than 2 fold induction)
GCLM gene induction ([2]; Table 4a): + (+ indicates a induction of greater than 2 fold)
DDIT3 gene induction ([3]; Table 4a): − (− Indicates less than 2 fold induction)
HMOX gene induction ([4]; Table 4b): + (+ indicates a induction of greater than 2 fold)
HSPA1a gene induction ([5]; Table 4b): − (− Indicates less than 2 fold induction)
TUB1 gene induction ([6]; Table 4a): − (− Indicates less than 2 fold induction)
BCL2 gene induction ([7]; Table 4b): − (− Indicates less than 2 fold induction)

Cc1ccsc1C1C(C#N)=C(N)Oc2[nH]nc(C(C)(C)C)c21 (stereo not drawn) [drawing 29/CMe3/H/Me/S]
HspA5 gene induction ([1]; Table 4b): − (− Indicates less than 2 fold induction)
GCLM gene induction ([2]; Table 4a): + (+ indicates a induction of greater than 2 fold)
DDIT3 gene induction ([3]; Table 4a): − (− Indicates less than 2 fold induction)
HMOX gene induction ([4]; Table 4b): + (+ indicates a induction of greater than 2 fold)
HSPA1a gene induction ([5]; Table 4b): − (− Indicates less than 2 fold induction)
TUB1 gene induction ([6]; Table 4a): − (− Indicates less than 2 fold induction)
BCL2 gene induction ([7]; Table 4b): − (− Indicates less than 2 fold induction)

Cc1n[nH]c2c1C(c1cccs1)C(C#N)=C(N)O2 (stereo not drawn) [drawing 29/Me/H/H/S]
HspA5 gene induction ([1]; Table 4b): − (− Indicates less than 2 fold induction)
GCLM gene induction ([2]; Table 4a): + (+ indicates a induction of greater than 2 fold)
DDIT3 gene induction ([3]; Table 4a): − (− Indicates less than 2 fold induction)
HMOX gene induction ([4]; Table 4b): + (+ indicates a induction of greater than 2 fold)
HSPA1a gene induction ([5]; Table 4b): − (− Indicates less than 2 fold induction)
TUB1 gene induction ([6]; Table 4a): − (− Indicates less than 2 fold induction)
BCL2 gene induction ([7]; Table 4b): − (− Indicates less than 2 fold induction)
